From US20130259999A1, “METHOD FOR INHIBITING YEAST ACTIVITY” (PURAC BIOCHEM B.V., priority 2010, published 2013)
Marks after values point to notes of the source that are not given here. Each block holds one compound with its values, some of them ahead of it.

Legend:
[1] = test system: Saccharomyces cerevisiae (CBS 2190); experiment: Combination tests: inhibition of yeast in model beverage; format: cell-based; settings: S. cerevisiae, model beverage pH about 3.5, 96 hours
Description: (§1) Candida albicans was isolated from a commercial beverage, Saccharomyces cerevisiae (CBS 2190) and Zygosaccharomyces bailii (CBS 6708) were obtained from CBS (Centraalbureau voor Schimmelcultures).
(§2) Inhibition of yeast was evaluated for combinations of EGCG and polylysine or LAE.
(§3) Yeast cultures were grown in model beverage which contained per litter of demineralised water: 40 g of sucrose, 0.35 g of apple flavour (Givaudan), 8.3 g of apple juice concentrate (Gargill) and 1 g of citric acid. The pH was about 3.5. Cultures were grown in screw-capped tubes for at least 48 hours at 25° C.
(§4) The tests combining two components were carried out in sterile 96-well Microtiter plates. Model beverage was prepared as described above with increasing amounts of two different inhibitors. The concentrations of each inhibitor were presented in 8 equal concentration steps that ranged from 0 to 1-2 times the estimated MIC value of particular yeast for a particular inhibitor. 200 μl of each medium was transferred to a panel of a sterile 96-well Microtiter plate. Completed well plates were stored at 4° C. until further use. For the inoculation of this test 5 μl of a 72 to 84 hours grown culture was used. The OD for every composition was measured 96 hours after inoculation.

Candida albicans [2] = experiment: as above; format: cell-based; settings: C. Albicans, model beverage pH about 3.5, 96 hours
Description: as §1, §2, §3, §4

[3] = test system: Zygosaccharomyces bailii (CBS 6708); experiment: as above; format: cell-based; settings: Z. bailii, model beverage pH about 3.5, 96 hours
Description: as §1, §2, §3, §4

[4] = test system: Saccharomyces cerevisiae (CBS 2190); experiment: Determination of the minimal inhibitor concentration (MIC) in liquid medium; format: cell-based; settings: S. cerevisiae; liquid medium pH 3.5; OD 96 hours after inoculation
Description: as §1
(§5) Yeast cultures were grown in liquid medium (per liter: 5 gram filtered Malt Extract from Oxoid Ltd., England, 40 gram glucose and 5 gram Bacto Peptone from Becton Dickinson, USA, at pH 3.5 prepared according to the manufacturer instructions) in screw-capped tubes for at least 48 hours at 25° C.
(§6) For the determination of the MIC, liquid medium was prepared as described above with increasing amounts of inhibitor. 200 μl of each inhibitor-comprising medium was transferred to a panel of a sterile 96-well Microtiter plate. Completed well plates were stored at 4° C. until further use. For the inoculation of the inhibitor-containing liquid media 5 μl of a 72 to 84 hours grown culture was used. The optical density (OD) for every composition was measured 96 hours after inoculation.

Candida albicans [5] = experiment: as above; format: cell-based; settings: C. Albicans; liquid medium pH 3.5; OD 96 hours after inoculation
Description: as §1, §5, §6

[6] = test system: Zygosaccharomyces bailii (CBS 6708); experiment: as above; format: cell-based; settings: Z. bailii; liquid medium pH 3.5; OD 96 hours after inoculation
Description: as §1, §5, §6

Kluyveromyces marxianus = settings: culture medium, WO 2009/031041; cited from earlier work
Saccharomyces cerevisiae = settings: culture medium, WO 2009/031041; cited from earlier work
[7] = EGCG 0.07 wt. %, average of two experiments

MIC [4]: 5000 ppm
MIC (Candida albicans [5]): 9000 ppm
MIC [6]: 2000 ppm
Compound: O=C(O[C@@H]1Cc2c(O)cc(O)cc2O[C@@H]1c1cc(O)c(O)c(O)c1)c1cc(O)c(O)c(O)c1 [EGCG, Epigallocatechin gallate]
Maximum OD [1, 7]: 0.28*
Maximum OD (Candida albicans [2]; [7]): 0.40*
Maximum OD [3, 7]: 0.28*

Compound: CCCCCCCCCCCC(=O)N[C@@H](CCCN=C(N)N)C(=O)OCC [LAE, lauric arginate]
MIC (Kluyveromyces marxianus): 7 ppm
Maximum OD ([1]; LAE 0.001 wt. %): 0.19
Maximum OD (Candida albicans [2]; LAE 0.002 wt. %): 0.30
Maximum OD ([3]; LAE 0.002 wt. %): 0.38
MIC (Saccharomyces cerevisiae): 24 ppm
MIC [4]: 30-80 ppm
MIC (Candida albicans [5]): >70* ppm
MIC [6]: >70* ppm

Compound: ε-Polylysine
Maximum OD (Candida albicans [2]; ε-polylysine 0.0005 wt. %): 0.32
Maximum OD ([3]; ε-polylysine 0.0005 wt. %): 0.40
MIC [4]: 30-80 ppm
MIC (Candida albicans [5]): >40* ppm
MIC [6]: >40* ppm
